Data from the CheMixHub viscosity set.
Values joined by “and” are separate entries in the source; they are usually repeats but may differ in a detail not shown here. Identical values can stand only once.

Assay: xn = mol fraction of the nth substance listed

CCCCCCCCCCCCCCCCCC + CCCCCCC
101 kPa, x2 = 0.5
Details | viscosity [mPa·s]
298 K | 1.73
318 K | 1.241

O=C[C@H](O)[C@@H](O)[C@H](O)[C@H](O)CO + O
Details | viscosity
293.15 K, 101 kPa, x1 = 0.002 | 1.043 mPa·s
293.15 K, 101 kPa, x1 = 0.0026 | 1.079 mPa·s
293.15 K, 101 kPa, x1 = 0.005 | 1.13 mPa·s
293.15 K, 101 kPa, x1 = 0.011 | 1.24 mPa·s and 1.34 mPa·s
293.15 K, 101 kPa, x1 = 0.0244 | 1.95 mPa·s
293.15 K, 101 kPa, x1 = 0.0411 | 3.01 mPa·s
293.15 K, 101 kPa, x1 = 0.0625 | 5.4 mPa·s
293.15 K, 101.3 kPa, x1 = 0.001 | 1.021 mPa·s
298.15 K, 100 kPa, x1 = 0.0009 | 1.019 mPa·s
298.15 K, 101 kPa, x1 = 0.0002 | 0.9013 mPa·s
298.15 K, 101 kPa, x1 = 0.0005 | 0.9169 mPa·s
298.15 K, 101 kPa, x1 = 0.001 | 0.9634 mPa·s
298.15 K, 101 kPa, x1 = 0.0018 | 0.9874 mPa·s
298.15 K, 101 kPa, x1 = 0.002 | 0.9826 mPa·s
298.15 K, 101 kPa, x1 = 0.00413 | 0.9934 mPa·s
298.15 K, 101 kPa, x1 = 0.005 | 1.015 mPa·s
298.15 K, 101 kPa, x1 = 0.00623 | 1.03 mPa·s
298.15 K, 101 kPa, x1 = 0.011 | 1.15 mPa·s
298.15 K, 101 kPa, x1 = 0.02 | 1.42 mPa·s
298.15 K, 101 kPa, x1 = 0.0244 | 1.68 mPa·s
298.15 K, 101 kPa, x1 = 0.0411 | 2.48 mPa·s
298.15 K, 101 kPa, x1 = 0.0625 | 4.48 mPa·s
298.15 K, 101 kPa, x1 = 0.0909 | 8.75 mPa·s and 12.75 mPa·s
303.15 K, 100 kPa, x1 = 0.0009 | 0.9332 mPa·s
303.15 K, 101 kPa, x1 = 0.002 | 0.8392 mPa·s
303.15 K, 101 kPa, x1 = 0.004 | 0.8723 mPa·s
303.15 K, 101 kPa, x1 = 0.005 | 0.9084 mPa·s
303.15 K, 101.3 kPa, x1 = 0.001 | 0.814 mPa·s
308.15 K, 100 kPa, x1 = 0.0009 | 0.8522 mPa·s
308.15 K, 101 kPa, x1 = 0.00209 | 0.7871 mPa·s
308.15 K, 101 kPa, x1 = 0.004 | 0.7909 mPa·s
308.15 K, 101 kPa, x1 = 0.00413 | 0.8216 mPa·s
308.15 K, 101 kPa, x1 = 0.005 | 0.8313 mPa·s
308.15 K, 101 kPa, x1 = 0.008982 | 0.911 mPa·s
308.15 K, 101 kPa, x1 = 0.011 | 0.98 mPa·s and 1.05 mPa·s
308.15 K, 101 kPa, x1 = 0.01441 | 1.037 mPa·s
308.15 K, 101 kPa, x1 = 0.0179 | 1.134 mPa·s
308.15 K, 101 kPa, x1 = 0.02 | 1.133 mPa·s and 1.086 mPa·s
308.15 K, 101 kPa, x1 = 0.02311 | 1.278 mPa·s
308.15 K, 101 kPa, x1 = 0.0244 | 1.34 mPa·s
308.15 K, 101 kPa, x1 = 0.02991 | 1.442 mPa·s
308.15 K, 101 kPa, x1 = 0.03509 | 1.711 mPa·s
308.15 K, 101 kPa, x1 = 0.0411 | 1.94 mPa·s
308.15 K, 101 kPa, x1 = 0.05203 | 2.579 mPa·s
308.15 K, 101 kPa, x1 = 0.0591 | 3.084 mPa·s
308.15 K, 101 kPa, x1 = 0.0625 | 3.31 mPa·s
308.15 K, 101 kPa, x1 = 0.0909 | 6.58 mPa·s and 9 mPa·s
313.15 K, 100 kPa, x1 = 0.0009 | 0.7853 mPa·s
313.15 K, 101 kPa, x1 = 0.002 | 0.6943 mPa·s
313.15 K, 101 kPa, x1 = 0.004 | 0.7341 mPa·s
313.15 K, 101 kPa, x1 = 0.005 | 0.7858 mPa·s
313.15 K, 101 kPa, x1 = 0.011 | 0.81 mPa·s and 0.97 mPa·s
313.15 K, 101 kPa, x1 = 0.02 | 1.022 mPa·s and 0.9825 mPa·s
313.15 K, 101 kPa, x1 = 0.0244 | 1.19 mPa·s
313.15 K, 101 kPa, x1 = 0.0411 | 1.69 mPa·s
313.15 K, 101 kPa, x1 = 0.0625 | 2.96 mPa·s
313.15 K, 101 kPa, x1 = 0.0909 | 4.88 mPa·s and 5.67 mPa·s
313.15 K, 101 kPa, x1 = 0.13 | 13.08 mPa·s and 11.8 mPa·s
313.15 K, 101.3 kPa, x1 = 0.001 | 0.671 mPa·s
318.15 K, 101 kPa, x1 = 0.008982 | 0.756 mPa·s
318.15 K, 101 kPa, x1 = 0.011 | 0.71 mPa·s and 0.85 mPa·s
318.15 K, 101 kPa, x1 = 0.01441 | 0.861 mPa·s
318.15 K, 101 kPa, x1 = 0.0179 | 0.941 mPa·s
318.15 K, 101 kPa, x1 = 0.02 | 0.9234 mPa·s and 0.8774 mPa·s
318.15 K, 101 kPa, x1 = 0.02311 | 1.061 mPa·s
318.15 K, 101 kPa, x1 = 0.0244 | 1.05 mPa·s
318.15 K, 101 kPa, x1 = 0.02991 | 1.197 mPa·s
318.15 K, 101 kPa, x1 = 0.03509 | 1.42 mPa·s
318.15 K, 101 kPa, x1 = 0.0411 | 1.43 mPa·s
318.15 K, 101 kPa, x1 = 0.05203 | 2.141 mPa·s
318.15 K, 101 kPa, x1 = 0.0591 | 2.561 mPa·s
318.15 K, 101 kPa, x1 = 0.0625 | 2.47 mPa·s
318.15 K, 101 kPa, x1 = 0.0909 | 3.91 mPa·s and 4.65 mPa·s
318.15 K, 101 kPa, x1 = 0.13 | 10.56 mPa·s and 8 mPa·s
323.15 K, 101 kPa, x1 = 0.011 | 0.72 mPa·s and 0.78 mPa·s
323.15 K, 101 kPa, x1 = 0.02 | 0.8435 mPa·s and 0.7914 mPa·s
323.15 K, 101 kPa, x1 = 0.0244 | 0.97 mPa·s
323.15 K, 101 kPa, x1 = 0.0411 | 1.29 mPa·s
323.15 K, 101 kPa, x1 = 0.0625 | 2.19 mPa·s
323.15 K, 101 kPa, x1 = 0.0909 | 3.68 mPa·s and 4.56 mPa·s
323.15 K, 101 kPa, x1 = 0.13 | 8.63 mPa·s and 7.5 mPa·s

NCc1ccccc1 + CCC(C)(C)O
viscosity [mPa·s], 101.33 kPa
Details | x1 = 0.1 | x1 = 0.2001 | x1 = 0.3 | x1 = 0.4 | x1 = 0.5 | x1 = 0.6 | x1 = 0.6999 | x1 = 0.7994 | x1 = 0.8998
298.15 K | 3.228 | 2.988 | 2.781 | 2.576 | 2.394 | 2.223 | 2.067 | 1.927 | 1.792
303.15 K | 2.641 | 2.463 | 2.289 | 2.143 | 1.995 | 1.882 | 1.773 | 1.668 | 1.578
308.15 K | 2.193 | 2.043 | 1.919 | 1.793 | 1.696 | 1.609 | 1.533 | 1.468 | 1.422

CCCCCCCCCc1ccccc1 + CCCCCCC
313.15 K, 100 kPa
Details | viscosity [mPa·s]
x2 = 0.097 | 1.82
x2 = 0.265 | 1.398
x2 = 0.405 | 1.111
x2 = 0.523 | 0.918
x2 = 0.671 | 0.691
x2 = 0.754 | 0.59
x2 = 0.86 | 0.411

CCOC(=O)CC(C)=O + CCCO
viscosity [mPa·s], 100 kPa
Details | x1 = 0.0644 | x1 = 0.1297 | x1 = 0.2035 | x1 = 0.2808 | x1 = 0.3716 | x1 = 0.4706 | x1 = 0.5808 | x1 = 0.7083 | x1 = 0.8379
293.15 K | 1.907 | 1.663 | 1.448 | 1.344 | 1.321 | 1.346 | 1.395 | 1.46 | 1.563
298.15 K | 1.675 | 1.515 | 1.404 | 1.32 | 1.279 | 1.281 | 1.295 | 1.336 | 1.413

S=C=S + CCOC(C)=O
298.15 K, 101 kPa
Details | viscosity [mPa·s]
x2 = 0.1445 | 0.367
x2 = 0.3581 | 0.389
x2 = 0.6307 | 0.416

CC(C)[C@H](NC(=O)[C@H](C)N)C(=O)O + O
viscosity [mPa·s], 101 kPa
Details | x1 = 3.62e-05 | x1 = 7.46e-05 | x1 = 0.000109 | x1 = 0.000142 | x1 = 0.0001835 | x1 = 0.0002124 | x1 = 0.0002514 | x1 = 0.0002793 | x1 = 0.0003251 | x1 = 0.0003549
305.15 K | 0.7756 | 0.7779 | 0.7783 | 0.7805 | 0.7822 | 0.7866 | 0.7955 | 0.8038 | 0.8095 | 0.8143
310.15 K | 0.7078 | 0.7083 | 0.7121 | 0.7125 | 0.7162 | 0.7192 | 0.7239 | 0.7284 | 0.7327 | 0.7351
315.15 K | 0.647 | 0.6501 | 0.6523 | 0.6554 | 0.6591 | 0.6601 | 0.6623 | 0.6675 | 0.6689 | 0.6701

CCOC(=O)CCBr + CCCCCC
303.15 K, 101 kPa
Details | viscosity [mPa·s]
x1 = 0.2142 | 0.3919
x1 = 0.4043 | 0.55
x1 = 0.5019 | 0.674
x1 = 0.6029 | 0.8315
x1 = 0.8046 | 1.263

OCCO + CC#N
viscosity [mPa·s], 100 kPa
Details | x2 = 0.1016 | x2 = 0.2004 | x2 = 0.3019 | x2 = 0.3984 | x2 = 0.4901 | x2 = 0.6353 | x2 = 0.6987 | x2 = 0.8061 | x2 = 0.8984
293.15 K | 13 | 8.4 | 5.53 | 3.48 | 2.4 | 1.35 | 1.06 | 0.71 | 0.51
298.15 K | 11.2 | 7.41 | 4.87 | 3.19 | 2.21 | 1.25 | 0.98 | 0.66 | 0.48
303.15 K | 9.25 | 6.17 | 4.25 | 2.85 | 2.01 | 1.17 | 0.93 | 0.63 | 0.45

S=C=S + CCO
298.15 K, 101 kPa
Details | viscosity [mPa·s]
x1 = 0.1096 | 0.9448
x1 = 0.1264 | 0.9535
x1 = 0.1726 | 0.9065
x1 = 0.2241 | 0.8407
x1 = 0.2832 | 0.7621
x1 = 0.4039 | 0.6659
x1 = 0.5848 | 0.5669
x1 = 0.6266 | 0.5466
x1 = 0.7329 | 0.4926
